Measured values reported in PubChem BioAssay (NCI).
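Growth conditions: 96-well plates. Treatment: test compound, 48 hours, 5 concentrations. Analysis: linear interpolation between bracketing concentrations; unreached endpoints set to highest concentration. At the GI50, growth is halved. TGI: concentration producing complete growth inhibition.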

What was measured:
Experiment in all cases: NCI anticancer screen, dose series, 48 h
MDA-MB-231 breast = system: MDA-MB-231 breast
SN12C renal = system: SN12C renal
SK-MEL-28 melanoma = system: SK-MEL-28 melanoma
M14 melanoma = system: M14 melanoma
PC-3 prostate = system: PC-3 prostate
NCI-H226 lung = system: NCI-H226 lung
SF-268 CNS = system: SF-268 CNS
UO-31 renal = system: UO-31 renal
HCC-2998 colon = system: HCC-2998 colon
SR leukemia = system: SR leukemia
MALME-3M melanoma = system: MALME-3M melanoma

Compound `CCCCCCCCCCCCCCCCCCNc1ccn(C2OC(COP(=O)(O)O)C(O)C2O)c(=O)n1` (centres undefined) has a TGI (MDA-MB-231 breast) greater than 100 µM, a TGI (SN12C renal) greater than 100 µM and a TGI (SK-MEL-28 melanoma) greater than 100 µM. The TGI (M14 melanoma) was greater than 100 µM, the TGI (PC-3 prostate) was greater than 100 µM and the TGI (NCI-H226 lung) was greater than 100 µM. For the same compound, the TGI (SF-268 CNS) was greater than 100 µM, the TGI (UO-31 renal) was greater than 100 µM and the TGI (HCC-2998 colon) was greater than 100 µM.
Compound `C[n+]1c2ccccc2c(CNC(CCC(N)=O)C(=O)O)c2ccccc21` (centres undefined) has a TGI (SN12C renal) of 7.36 µM, a TGI (SK-MEL-28 melanoma) of 12.1 µM and a TGI (M14 melanoma) of 12.2 µM. For the same compound, the TGI (SR leukemia) was 3.71 µM, the TGI (PC-3 prostate) was 10.8 µM and the TGI (NCI-H226 lung) was 18.3 µM. The TGI (SF-268 CNS) was 6.71 µM, the TGI (UO-31 renal) was 10.3 µM and the TGI (MALME-3M melanoma) was 10.6 µM. For the same compound, the TGI (HCC-2998 colon) was 11.2 µM.
`N[C@@H]1c2c(Br)sc(Br)c2[C@H](O)[C@@H]1O` showed a TGI (MDA-MB-231 breast) greater than 100 µM, a TGI (SN12C renal) greater than 100 µM and a TGI (SK-MEL-28 melanoma) greater than 100 µM. The TGI (M14 melanoma) was greater than 100 µM, the TGI (PC-3 prostate) was greater than 100 µM and the TGI (NCI-H226 lung) was greater than 100 µM. It also gave a TGI (SF-268 CNS) greater than 100 µM, a TGI (UO-31 renal) greater than 100 µM and a TGI (MALME-3M melanoma) greater than 100 µM. For the same compound, the TGI (HCC-2998 colon) was greater than 100 µM.
Work on `CN(C)c1ccc(/C=C/c2sc3ccc4ccccc4c3[n+]2C)cc1` yielded a GI50 (MDA-MB-231 breast) of 0.526 µM, a TGI (MDA-MB-231 breast) of 2.62 µM and a GI50 (SN12C renal) of 0.359 µM. The TGI (SN12C renal) was 3.43 µM, the GI50 (PC-3 prostate) was 0.315 µM and the TGI (PC-3 prostate) was 1.71 µM. It also gave a GI50 (UO-31 renal) of 0.401 µM, a TGI (UO-31 renal) of 3.84 µM and a GI50 (HCC-2998 colon) of 0.365 µM. The TGI (HCC-2998 colon) was 1.57 µM.
With `CN1CCN(CC(=O)Nc2ccc3ncnc(Nc4ccc(Oc5cccc(C(F)(F)F)c5)c(Cl)c4)c3c2)CC1` the GI50 (MDA-MB-231 breast) was 1.78 µM, the TGI (MDA-MB-231 breast) was 3.3 µM and the GI50 (SN12C renal) was 1.7 µM. For the same compound, the TGI (SN12C renal) was 3.26 µM, the GI50 (SK-MEL-28 melanoma) was 1.71 µM and the TGI (SK-MEL-28 melanoma) was 3.16 µM. The GI50 (SR leukemia) was 0.371 µM, the TGI (SR leukemia) was 2.2 µM and the GI50 (PC-3 prostate) was 1.69 µM. It also gave a TGI (PC-3 prostate) of 3.26 µM, a GI50 (SF-268 CNS) of 1.49 µM and a TGI (SF-268 CNS) of 3.11 µM. The GI50 (UO-31 renal) was 1.2 µM, the TGI (UO-31 renal) was 2.46 µM and the GI50 (MALME-3M melanoma) was 1.56 µM. For the same compound, the TGI (MALME-3M melanoma) was 3.05 µM.
`Cc1ccc(S(=O)(=O)N2CCSCCSCCN(S(=O)(=O)c3ccc(C)cc3)CCN(S(=O)(=O)c3ccc(C)cc3)CC2)cc1` was tested, and the TGI (MDA-MB-231 breast) was greater than 100 µM, the TGI (SN12C renal) was greater than 100 µM and the TGI (SK-MEL-28 melanoma) was greater than 100 µM. It also gave a TGI (M14 melanoma) greater than 100 µM, a TGI (PC-3 prostate) greater than 100 µM and a TGI (NCI-H226 lung) greater than 100 µM. The TGI (SF-268 CNS) was greater than 100 µM, the TGI (UO-31 renal) was greater than 100 µM and the TGI (MALME-3M melanoma) was greater than 100 µM. The TGI (HCC-2998 colon) was greater than 100 µM.
Compound `C=C(C)CCC1CCCCC(CN(C)C)C1=O` (centres undefined) has a TGI (MDA-MB-231 breast) greater than 100 µM, a TGI (SN12C renal) greater than 100 µM and a TGI (SK-MEL-28 melanoma) greater than 100 µM. It also gave a TGI (M14 melanoma) greater than 100 µM, a TGI (SR leukemia) greater than 100 µM and a TGI (PC-3 prostate) greater than 100 µM. For the same compound, the TGI (NCI-H226 lung) was greater than 100 µM, the TGI (SF-268 CNS) was greater than 100 µM and the TGI (UO-31 renal) was greater than 100 µM.
